According to US5444174A, “16-membered macrolide derivative having sustained antibacterial activity in plasma, synthesis intermediate thereof and process for producing the same” (Meiji Seika Kaisha, Ltd., priority 1992, dated 1995):
Values after ≈ are worked out from the molar mass of the structure shown.

Assays:
B. catarrhalis W-0500 = test: Antibacterial activity (MIC), agar plate dilution method; format: cell-based; conditions: Moraxella catarrhalis, W0500; 37° C., 20 hours; blood agar seed culture; B. catarrhalis W-0500; read-out: Antibacterial activity (MIC)
Experimental: (§1) Antibacterial activities of the compounds of formula (I) are shown in Table 1 in terms of minimum inhibitory concentration (MIC).
(§2) Minimum inhibitory concentration was determined by the agar plate dilution method. Test strains were subjected to seed culture using Sensitivity test broth (STB, Nissui Pharmaceutical) except that the strains belonging to the genus Streptococcus, Branhamella and Haemophilus were cultured on blood agar plate. A 5 μl portion of cell suspension of the test strains having about 10^6 CFU/ml was inoculated into Sensitivity disk agar (SDA, Nissui Pharmaceutical) supplemented with 5% horse blood and incubated at 37° C. for 20 hours. Then, MIC was measured.

B. catarrhalis W-0506 = test: as above; format: cell-based; conditions: Moraxella catarrhalis, W0506; 37° C., 20 hours; blood agar seed culture; B. catarrhalis W-0506; read-out: Antibacterial activity (MIC)
Experimental: as §1, §2

E. coli NIHJ JC-2 = test: as above; format: cell-based; conditions: Escherichia coli, NIHJJC2, 37° C., 20 hours
Experimental: as §1, §2

Ent. faecalis W-73 = test: as above; format: cell-based; conditions: Enterococcus faecalis, W73, 37° C., 20 hours
Experimental: as §1, §2

H. influenza 9334 = test: as above; format: cell-based; conditions: 37° C., 20 hours, blood agar seed culture
Experimental: as §1, §2

K. pneumoniae PC1602 = test: as above; format: cell-based; conditions: Klebsiella pneumoniae, 37° C., 20 hours
Experimental: as §1, §2

M. luteus ATCC 9341 = test: as above; format: cell-based; conditions: Micrococcus luteus, ATCC9341, 37° C., 20 hours
Experimental: as §1, §2

S. Pyogenes Cook = test: as above; format: cell-based; conditions: Streptococcus pyogenes, 37° C., 20 hours, blood agar seed culture
Experimental: as §1, §2

S. pneumoniae IP692 = test: as above; format: cell-based; conditions: Streptococcus pneumoniae, 37° C., 20 hours, blood agar seed culture
Experimental: as §1, §2

S. pneumoniae Type 1 = test: as above; format: cell-based; conditions: Streptococcus pneumoniae, TYPE1, 37° C., 20 hours, blood agar seed culture
Experimental: as §1, §2

Sta. aureus 209P JC-1 = test: as above; format: cell-based; conditions: Staphylococcus aureus, 37° C., 20 hours
Experimental: as §1, §2

Sta. aureus M126 = test: as above; format: cell-based; conditions: Staphylococcus aureus, 37° C., 20 hours
Experimental: as §1, §2

Sta. aureus M133 = test: as above; format: cell-based; conditions: Staphylococcus aureus; 37° C., 20 hours; Sta. aureus M133; read-out: Antibacterial activity (MIC)
Experimental: as §1, §2

[1] = tested on: Sta. aureus MS15009/pMS98; test: as above; format: cell-based; conditions: Staphylococcus aureus, MS15009/PMS98, 20 h, read-out: Antibacterial activity (MIC)
Experimental: as §1, §2

[2] = tested on: Sta. aureus MS15009/pMS99; test: as above; format: cell-based; conditions: Staphylococcus aureus, MS15009/PMS99, 20 h, read-out: Antibacterial activity (MIC)
Experimental: as §1, §2

Sta. aureus MS15026 = test: as above; format: cell-based; conditions: Staphylococcus aureus, 37° C., 20 hours
Experimental: as §1, §2

Sta. aureus MS15027 = test: as above; format: cell-based; conditions: Staphylococcus aureus; 37° C., 20 hours; Sta. aureus MS15027; read-out: Antibacterial activity (MIC)
Experimental: as §1, §2

[3] = tested on: Sta. epidermidis ATCC 14990; test: as above; format: cell-based; conditions: Staphylococcus epidermidis, ATCC14990; 37° C., 20 hours; Sta. epidermidis ATCC 14990; read-out: Antibacterial activity (MIC)
Experimental: as §1, §2

[4] = cited from earlier work
[5] = vs midecamycin; cited from earlier work
[6] = cited from earlier work; remark: listed apart in the source
[7] = human compared with rat; cited from earlier work
gram-positive bacteria = test: Antibacterial activities against gram-positive bacteria (summary of Table 1); format: cell-based; conditions: in words
Experimental: as §1, §2

M. luteus = format: in vitro ADME
Experimental: Each test compound and 50 μl of a methanol solution (10,000 γ) were added to 950 μl of thawed rat plasma and the resulting mixture was incubated at 37° C. A 20 μl portion of the mixture was sampled after 0, 1, 3, 6 and 24 hours and added to 980 μl of 0.05M phosphate buffer (pH 7.2). A 20 μl portion of the sample solution was used to measure antibacterial activity against M. luteus. Separately, the calibration curve was prepared by using a methanol solution containing each test compound. The starting activity of each compound in the plasma was referred to as 100%.
Changes in the antibacterial activities of miokamycin and the compound (14) against M. luteus were measured in the same manner as described above except for using fresh rat plasma in place of thawed rat plasma. The fresh rat plasma was prepared by collecting 50 ml of blood from five rats, treating the blood with heparin and subjecting it to centrifugation to obtain plasma.

[8] = Storage stability of synthesis intermediates; format: physicochemical; conditions: room temperature storage

Structure (SMILES)	MIC (B. catarrhalis W-0500)	MIC (B. catarrhalis W-0506)	MIC (E. coli NIHJ JC-2)	MIC (Ent. faecalis W-73)	MIC (H. influenza 9334)	MIC (K. pneumoniae PC1602)	MIC (M. luteus ATCC 9341)	MIC (S. Pyogenes Cook)	MIC (S. pneumoniae IP692)	MIC (S. pneumoniae Type 1)	MIC (Sta. aureus 209P JC-1)	MIC (Sta. aureus M126)	MIC (Sta. aureus M133)	MIC [1]	MIC [2]	MIC (Sta. aureus MS15026)	MIC (Sta. aureus MS15027)	MIC [3]	other results
CCC(=O)O[C@@H]1CC(=O)O[C@H](C)C/C=C/C=C/[C@H](OC(C)=O)[C@H](C)C[C@H](CC=O)[C@H](O[C@@H]2O[C@H](C)[C@@H](O[C@H]3C[C@@](C)(OC(C)=O)[C@@H](OC(=O)CC)[C@H](C)O3)[C@H](N(C)C)[C@H]2O)[C@H]1OC [Miokamycin, miokamycin, reference compound]	1.56 µg/mL (≈ 1.74 µM)	1.56 µg/mL (≈ 1.74 µM)	> 100 µg/mL	1.56 µg/mL (≈ 1.74 µM)	6.25 µg/mL (≈ 6.96 µM)	> 100 µg/mL	0.1 µg/mL (≈ 0.111 µM)	0.1 µg/mL (≈ 0.111 µM)	0.2 µg/mL (≈ 0.223 µM)	0.2 µg/mL (≈ 0.223 µM)	0.2 µg/mL (≈ 0.223 µM)	> 100 µg/mL	0.78 µg/mL (≈ 0.869 µM)	0.78 µg/mL (≈ 0.869 µM)	> 100 µg/mL	> 100 µg/mL	0.78 µg/mL (≈ 0.869 µM)	0.78 µg/mL (≈ 0.869 µM)	antibacterial activity after metabolism in vivo [4]: the antibacterial activity of this antibiotic is reduced; elimination of acyl group at the mycarose moiety in vivo [4]: eliminated in vivo; infection-protective action in vivo [5]: superior to midecamycin; recovery ratio in urine ([6]; vs midecamycin): superior to midecamycin; dynamics in vivo ([6]; vs natural compounds): superior in the dynamics in vivo to natural compounds; metabolic pattern of the deacylation of the mycarose moiety in human [7]: almost similar to that in rat
CCC(=O)O[C@@H]1CC(=O)O[C@H](C)C/C=C/C=C/C(=O)[C@H](C)C[C@H](CC=O)[C@H](O[C@@H]2O[C@H](C)[C@@H](O[C@H]3C[C@@](C)(OC)[C@@H](OCCC(C)C)[C@H](C)O3)[C@H](N(C)C)[C@H]2O)[C@H]1OC [Compound (14)]	0.78 µg/mL (≈ 0.929 µM)	0.78 µg/mL (≈ 0.929 µM)	> 100 µg/mL	1.56 µg/mL (≈ 1.86 µM)	6.25 µg/mL (≈ 7.44 µM)	> 100 µg/mL	0.1 µg/mL (≈ 0.119 µM)	0.05 µg/mL (≈ 0.0595 µM)	0.1 µg/mL (≈ 0.119 µM)	0.2 µg/mL (≈ 0.238 µM)	0.2 µg/mL (≈ 0.238 µM)	> 100 µg/mL	0.78 µg/mL (≈ 0.929 µM)	0.78 µg/mL (≈ 0.929 µM)	> 100 µg/mL	> 100 µg/mL	0.78 µg/mL (≈ 0.929 µM)	0.78 µg/mL (≈ 0.929 µM)	antibacterial activities against gram-positive bacteria (gram-positive bacteria): have antibacterial activities against gram-positive bacteria; antibacterial activities compared with miokamycin (gram-positive bacteria; vs miokamycin): excellent antibacterial activities exceeding that of miokamycin; antibacterial activity in rat plasma over time (M. luteus): antibacterial activity sustaining for a prolonged period of time in rat plasma; degree of the decrease in the antibacterial activity in plasma (M. luteus): clearly lower degree of the decrease in the antibacterial activity in plasma, compared with miokamycin; metabolism at the mycarose moiety in plasma (M. luteus): hardly metabolized at the mycarose moiety
CCC(=O)O[C@@H]1CC(=O)O[C@H](C)C/C=C/C=C/C(=O)[C@H](C)C[C@H](CC2OCCO2)[C@H](O[C@@H]2O[C@H](C)[C@@H](O)[C@H]([N+](C)(C)[O-])[C@H]2O)[C@H]1OC [Compound (2)]																			stability [8]: so stable as to be stored at room temperature for a prolonged period of time
